Measurements: US6319929A, “Suksdorfin analogs, compositions thereof, and methods for making and using thereof” (priority 1998, dated 2001)
Where “and” joins values, the source holds several entries; their conditions need not be identical. Equal values may be shown once.

How the values were obtained:
uninfected H9 cells [1] = assay: Toxicity to uninfected H9 cells (cell growth); type: cell-based; conditions: Homo sapiens
Method: HIV inhibition assay. The HIV inhibition was measured as described herein. Briefly, H9 cells, a T cell line, (3.5×10^6 cells/ml) were incubated in the presence or absence of HIV-1 (IIIB strain, 0.01-0.1 TCID50 /cell) for 1 hour at 37° C. Cells were washed thoroughly and resuspended at a final concentration of 2×10^5 cells/ml in the presence or absence of compound. After incubation for 3-4 days at 37° C., the cell density of uninfected cultures was determined by cell count to assess toxicity of the drug. An aliquot of each cell-free supernatant was assayed by p24 antigen ELISA to quantitate the amount of HIV-1 present in the infected cultures. Test compounds were considered to be active at a particular concentration if p24 antigen levels were less than 70% of infected, untreated controls and were nontoxic to uninfected H9 cells.
(§1) HIV Growth Inhibition Assay: The T cell line, H9, and the promonocytic cell line, U937, were maintained separately in continuous culture with complete medium (RPMI 1640 and […] fetal calf serum (FCS) at 5% CO2 and 37° C. Cell lines were used in experiments only when in log phase of growth; whereas, uninfected peripheral blood mononuclear cells (PBMCs) were first stimulated with PHA (1 μg/ml) for 3 days. All cell targets were incubated with HIV-1 (IIIB isolate, TCID50 10 ^4 IU/mi, at a multiplicity of infection of 0.1-0.01 IU/cell) for 1 hour at 37° C. and 5% CO2. The cell lines and PBMCs were washed thoroughly to remove unabsorbed virions and resuspended at 4×10^5 cells/ml in complete medium or complete medium with 10% v/v interleukin […] IL-2, respectively. Aliquots ( ml) were placed in wells of 24-well culture plates containing an equal volume of test compound (diluted in the appropriate culture medium). After incubation for 4 days at 37° C., cell density of uninfected cultures was determined by counting cells in a Coulter counter to assess toxicity of the test compound. A p24 antigen ELISA assay was used to determine the level of virus released in the medium of the HIV-infected cultures. The p24 antigen assay uses a HIV-1 anti-p24 specific monoclonal antibody as the capture antibody coated-on 96-well plates. Following a sample incubation period, rabbit serum containing antibodies for HIV-1 p24 is used to tag any p24 "captured" onto the microtiter well surface. Peroxidase conjugated goat anti-rabbit serum is then used to tag HIV-1 p24 specific rabbit antibodies which have complexed with captured p24. […] The cut-off for the p24 ELISA assay is 12. pg/ml. P24 in the culture medium was quantitated against a standard curve containing known amounts of p24. The effective (EC50) and inhibitory (IC50) concentrations (for anti-HIV activity and cytotoxicity, respectively) were determined graphically. Both the EC50 and IC50 values were calculated by plotting drug concentration versus percent inhibition, and then identifying a 50% inhibition value from the graph.

uninfected H9 cells [2] = assay: Combination study of suksdorfin with AZT, ddI and ddC: toxicity to uninfected H9 cells; type: cell-based; conditions: for IC50: Homo sapiens
Method: Pharm. Asso. […] Aliquots ( ml) were placed in wells of 24-well culture plates containing an equal volume of test compound (diluted in the appropriate culture medium). After incubation for 4 days at 37° C., cell density of uninfected cultures was determined by counting cells in a Coulter counter to assess toxicity of the test compound. A p24 antigen ELISA assay was used to determine the level of virus released in the medium of the HIV-infected cultures. The p24 antigen assay uses a HIV-1 anti-p24 specific monoclonal antibody as the capture antibody coated-on 96-well plates. Following a sample incubation period, rabbit serum containing antibodies for HIV-1 p24 is used to tag any p24 "captured" onto the microtiter well surface. […] The cut-off for the p24 ELISA assay is 12. pg/ml. P24 in the culture medium was quantitated against a standard curve containing known amounts of p24. The effective (EC50) and inhibitory (IC50) concentrations (for anti-HIV activity and cytotoxicity, respectively) were determined graphically.
Combination Study: The experimental design is identical to the growth inhibition assay except that various concentrations of AZT, ddI or ddC were also added to cultures of acutely HIV-1 infected H9 cells that either have or have no received different concentrations of suksdorfin.

U937 cells = assay: Toxicity to uninfected U937 cells; type: cell-based; conditions: Homo sapiens, U-937; U937 cell line
Method: (§2) Suksdorfin was also tested on an acute HIV-1 infection of the promonocytic cell line, U937. This was done again to determine drug specificity but this time on a monocytic cell line.
HIV Growth Inhibition Assay: The T cell line, H9, and the promonocytic cell line, U937, were maintained separately in continuous culture with complete medium (RPMI 1640 and […] fetal calf serum (FCS) at 5% CO2 and 37° C. Cell lines were used in experiments only when in log phase of growth; whereas, uninfected peripheral blood mononuclear cells (PBMCs) were first stimulated with PHA (1 μg/ml) for 3 days. All cell targets were incubated with HIV-1 (IIIB isolate, TCID50 10 ^4 IU/mi, at a multiplicity of infection of 0.1-0.01 IU/cell) for 1 hour at 37° C. and 5% CO2. The cell lines and PBMCs were washed thoroughly to remove unabsorbed virions and resuspended at 4×10^5 cells/ml in complete medium or complete medium with 10% v/v interleukin (Pettinato, et al. J. Amer. Pharm. Asso. […] After incubation for 4 days at 37° C., cell density of uninfected cultures was determined by counting cells in a Coulter counter to assess toxicity of the test compound. […] P24 in the culture medium was quantitated against a standard curve containing known amounts of p24. The effective (EC50) and inhibitory (IC50) concentrations (for anti-HIV activity and cytotoxicity, respectively) were determined graphically. […]

[3] = system: HIV-1 replication in U937 cells; assay: HIV-1 replication in acutely infected promonocytic U937 cells; type: cell-based, HIV-1 (IIIB); conditions: for EC50: Human immunodeficiency virus 1, U-937
Method: as §2
(§3) As part of efforts to biologically characterize 16 the monocytic cell line, U937 and peripheral blood mononuclear cells (PBMCs) were separately infected with HIV-1 and then had various concentrations of the analog added for 4 days of culture.
as §1

[4] = system: HIV-1 replication in PBMCs; assay: HIV-1 replication in acutely infected PBMCs; type: cell-based, HIV-1 (IIIB); conditions: for EC50: Human immunodeficiency virus 1, PBMC, PBMCs; for suppression of acute HIV-1 replication in PBMCs (in words): fresh PBMCs
Method: Suksdorf in was tested on peripheral blood mononuclear cells (PBMCS) which were stimulated for 3 days with PHA (1 .parallel.g/ml). The cells were collected and then infected with the 20X stock HIV-1 (IIIB). This is the same virus that is used in the drug screening assay. PBMCs were used for the following reasons: (1) It is another type of T cell infection. (2) PMBCs are freshly isolated cells not a cell line as are H9 cells. (3) We need to know if the effects of suksdorfin were limited to only an acute HIV-1 infection of a T cell line such as H9 cells. After the cells were infected with HIV-1, the cells were washed and then placed in medium with the cytokine, interleukin 2 (IL-2). IL-2 is needed to keep the cells activated which is necessary also for virus replication.
as §3, §1

[5] = system: HIV-2 replication in HUT-78 cells; assay: Suppression of virus replication during HIV-2 infection of HUT-78 cells (reverse transcriptase assay); type: cell-based
Description: During this experiment, HIV-2 was used. The basic assay system is identical to that used for HIV-1 except that a different virus stock was used and rather than a p24 antigen ELISA determination a reverse transcriptase assay was used to detect the presence of the virus.

Cc1cn([C@H]2C[C@H](N=[N+]=[N-])[C@@H](CO)O2)c(=O)[nH]c1=O [AZT, azidothymidine, reference compound]
IC50 (uninfected H9 cells [1]; H9, Table 3, H9 lymphocytes): 2000 µM
IC50 (uninfected H9 cells [1]; H9, Table 17, uninfected H9 cell growth): 1880 µM
IC50 (uninfected H9 cells [2]; H9): > 1 µg/mL
IC50 (uninfected H9 cells [2]; H9, read-out: IC50 (μM)^a): > 1 µg/mL

CC(=O)O[C@@H]1[C@H](OC(=O)CC(C)C)c2c(ccc3ccc(=O)oc23)OC1(C)C [Suksdorfin, suksdorfin]
IC50 (U937 cells): > 20 µg/mL
IC50 (uninfected H9 cells [1]; H9, Table 14, concentration which inhibits uninfected cell growth by 50%, read-out: IC50 (μM)^a): > 52 µM
IC50 (uninfected H9 cells [1]; H9, Table 17, uninfected H9 cell growth, read-out: IC50): > 52 µM
IC50 (uninfected H9 cells [1]; H9, concentration which inhibits uninfected cell growth by 50%, read-out: IC50): > 52 µM
EC50 ([3]; U937 cell line): 0.58 µg/mL
EC50 ([3]; U937 cells): 1500 nM
Therapeutic Index ([3]; U937 cell line, 5760 min): > 34.5
suppression of acute HIV-1 replication in U937 cells (in words) ([3]; U937 cells): can suppress an acute HIV-1 replication
EC50 from U937 cells relative to that for PBMCs ([3]; U937 versus PBMCs): approximately one third
EC50 [4]: 3.9 µM
EC50 ([4]; Table 6): 1.5 µg/mL
suppression of acute HIV-1 replication in PBMCs (in words) [4]: can suppress an acute HIV-1 replication
toxicity to H9 cells (uninfected H9 cells [2]; 20 μg/ml): toxic to H9 cells

CC1(C)Oc2ccc3ccc(=O)oc3c2[C@@H](OC(=O)[C@@]23CC[C@@](C)(C(=O)O2)C3(C)C)[C@H]1OC(=O)[C@@]12CC[C@@](C)(C(=O)O1)C2(C)C [Compound 16, 3',4'-Di-O-(-)-Camphanoyl-(+)-cis-Khellactone]
effect on HIV-2 replication (in words) [5]: no effect on the virus replication of HIV-2
EC50 ([3]; U937 cell line): 0.00128 µg/mL
EC50 ([3]; U937 cells): 2.1 nM
suppression of acute HIV-1 replication in U937 cells (in words) ([3]; U937 cells): suppression detected
EC50 [4]: 0.018 µg/mL and 29 nM
suppression of acute HIV-1 replication in PBMCs (in words) [4]: suppression detected
